Assay results as given in EP0340198B1, “Immunoassay for the detection of alpha-haloacetamides” (priority 1988, dated 1989).

How the values were obtained:
[1] = tested on: antibodies toward butachlor; assay: inhibition ELISA for butachlor; assay type: binding, rabbits; conditions: standard solutions at 10 and 50 ppb in DI water
Description: (§1) The generation of antibodies toward butachlor (2-chloro-2′,6′-diethyl-N-(butoxymethyl)acetanilide), amidochlor (2-chloro-2′,6′-diethyl-N-acetamidomethyl acetanilide), and metolachlor (2-chloro-2′-ethyl-6′-methyl-N-(2-methoxy-1-methylethyl)acetanilide) were accomplished following identical procedures as those described for alachlor. The individual 14C-labeled chloroacetanilide was covalently bound to HSA (human serum albumin) with AHT, and to sheep IgG with AMSA.
(§2) The hapten-IgG conjugates were used to immunize rabbits. The corresponding hapten-BSA conjugates were then utilized in checkerboard assays to determine the presence of desired antibodies in the antisera. An inhibition ELISA for butachlor was set up with antiserum, butachlor-HSA screening antigen, and butachlor. Similar assays were also set up for amidochlor and metolachlor.
(§3) The sensitivity of the inhibition ELISA for butachlor, amidochlor, and metolachlor was tested with respective standards prepared in DI water. Using the best antiserum, the butachlor ELISA produced an IC50 of 8 ppb.
(§4) The specificity of the ELISA for butachlor, amidochlor, and metolachlor were tested using standard solutions of alachlor, acetochlor, butachlor, amidochlor, metolachlor, and propachlor at concentrations of 10 and 50 ppb in DI water. At these concentrations, the ELISA assay for butachlor, amidochlor, and metolachlor was each inhibited only by the respective free hapten, and not by any of the other chloroacetanilides.

alachlor antibodies = assay: inhibition ELISA for alachlor (cross-reactivity studies); assay type: binding, rabbit; conditions: for reaction (cross-reactivity) with the antibodies, in words: relative to alachlor; for ELISA % Absorbance MEAN (n = 20): antisera from bleed seven
Method: Immunoassays. A known "checkerboard assay" was initially conducted with each serum sample after the first boost to detect the production of antibodies against alachlor. […] The next 7 rows received the subsequent dilutions of the screening antigen. The plate was covered with Parafilm and stored overnight at 4°C. The next morning, the unbound screening antigen was removed from the wells by washing three times with phosphate buffered saline solution (0.01 M phosphate buffer of pH 7.4, 0.15 M NaCl; PBS). The remaining active sites in the wells were blocked with PBS-8% non-fat dry milk solution, (NFDM, 0.3 mL) for 1 hr at 22°C. Serum, which had been stored at -20°C, was freshly thawed and serially diluted (one to two) from 1,000 to 64,000-fold using PBS-T (PBS containing 0.02% Tween 20). Starting with the most concentrated solution, 0.1 mL of the serum solution was pipetted into all 8 wells of column 1; the remaining columns received the subsequent dilutions of the serum solution. The plate was covered and incubated at 22°C for 1.5 hrs. Following triplicate washes of the wells with PBS-T, each of the wells received 0.1 mL of goat anti-rabbit gamma-globulin conjugated to horseradish peroxidase (GAR-HRP) freshly thawed and diluted 4,000 fold with PBS-1% NFDM. After a final wash cycle (4 times) with PBS-T, freshly prepared O-phenylene diamine (PDA) substrate solution (0.2 mL, 0.04 mg/mL PDA and 0.01% H₂O₂ in 0.05 M citric acid and 0.15 M sodium dibasic phosphate, pH 5.0) was dispensed into each of the wells and incubated in the dark at 22°C for 30-60 min. Sulfuric acid (4 N, 50 µL) was added to each of the wells to stop the reaction, and the final absorbances of the wells (490 nm) were recorded.
The inhibition ELISA required one additional step in the assay procedure described above. Equal volumes of the diluted serum and aqueous alachlor standard or unknown sample were mixed and preincubated at 22°C for 1 hr. This mixture (0.1 mL/well) was then analyzed in 6 replicate wells on the plate. The presence of free alachlor inhibited the binding of the antibody to the alachlor-BSA conjugate, resulting in an inhibition of the development of absorbance at 490 nm. The amount of free alachlor was indirectly proportional to the intensity of color developed. Levels of alachlor in unknown water samples were calculated based on the alachlor standards on the same plate. Alachlor standards (0, 0.2, 0.5, 1.0, 3.0, 5.0, and 8.0 ppb in deionized water) were stored at -20°C in 1-mL portions, and were freshly thawed for each assay.
Data Calculations. The lay-out of a typical 96-well microtiter plate is 8 rows of 12 columns in an inhibition ELISA assay for alachlor. The first 6 wells in the first column of wells were not coated with the screening antigen and served as the background wells. The first 6 wells in the remaining 7 columns of wells were reserved for the seven alachlor standards (0 to 8 ppb) listed above. The remaining wells in all 8 rows were used for the samples. The uncorrected absorbances of the wells determined by the Bio-tek reader were used in the following calculations. The median was calculated for the 6 replicate background wells and was then subtracted from the medians of the standards and samples. All the median values were divided by the median of the standard without alachlor (0 ppb) to generate percentages of absorbances. The percent absorbance of the alachlor standards was then plotted on the Y axis against the logarithm (base 10) of the actual concentrations of alachlor on the X axis. A hyperbolic curve was drawn through the standards, and the resulting standard curve was used to calculate the concentrations of alachlor in the unknown samples.
The calculations described above were usually carried out using a computer program.

[2] = tested on: antibodies toward amidochlor; assay: inhibition ELISA for amidochlor; assay type: binding, rabbits; conditions: standard solutions at 10 and 50 ppb in DI water
Description: as §1, §2, §3, §4

[3] = tested on: antibodies toward metolachlor; assay: inhibition ELISA for metolachlor; assay type: binding, rabbits; conditions: standard solutions at 10 and 50 ppb in DI water
Description: as §1, §2, §3, §4

SMILES	inhibition of the ELISA assay for butachlor [1]	percent cross-reactivity (alachlor antibodies; bleed four) [%]	cross-reactivity in the subsequent bleeds (alachlor antibodies; bleeds after bleed four)	reaction (cross-reactivity) with the antibodies, in words (alachlor antibodies)	inhibition of the ELISA assay for amidochlor [2]	inhibition of the ELISA assay for metolachlor [3]	ELISA % Absorbance MEAN (n = 20) (alachlor antibodies; Alachlor Conc. 0.2 ppb) [%]	ELISA % Absorbance MEAN (n = 20) (alachlor antibodies; Alachlor Conc. 0.5 ppb) [%]	ELISA % Absorbance MEAN (n = 20) (alachlor antibodies; Alachlor Conc. 1.0 ppb) [%]	ELISA % Absorbance MEAN (n = 20) (alachlor antibodies; Alachlor Conc. 3.0 ppb) [%]	ELISA % Absorbance MEAN (n = 20) (alachlor antibodies; Alachlor Conc. 5.0 ppb) [%]	ELISA % Absorbance MEAN (n = 20) (alachlor antibodies; Alachlor Conc. 8.0 ppb) [%]	percent cross-reactivity (alachlor antibodies; IC50 of alachlor divided by IC50 of analog x 100, bleed not stated) [%]
CCOCN(C(=O)CCl)c1c(C)cccc1CC [Acetochlor, acetochlor]	not	10	decreased slightly	little to no interaction	not	not							
CCc1cccc(CC)c1N(COC)C(=O)CCl [Alachlor, α-chloro-2′,6′-diethyl-N-methoxymethyl acetanilide]	not				not	not	78.1	55.3	37.4	22.9	17.7	11.3	100
CC(C)N(C(=O)CCl)c1ccccc1 [Propachlor, propachlor]	not			little to no interaction	not	not							
